pIC50: −log10 of the molar value.
What was measured:
Toll-like receptor 9 [1] = target: T1, Toll-like receptor 9 (Mus musculus, UniProt Q9EQU3); assay: Antagonist activity at TLR9 in mouse whole blood inhibition of DOTAP-ODN2216-induced IFNalpha production preincubated for 30 mins followed by DOTAP-ODN2216 addition and measured after 20 hrs by ELISA; type: tissue-based
T1 sequence (Q9EQU3 whole entry): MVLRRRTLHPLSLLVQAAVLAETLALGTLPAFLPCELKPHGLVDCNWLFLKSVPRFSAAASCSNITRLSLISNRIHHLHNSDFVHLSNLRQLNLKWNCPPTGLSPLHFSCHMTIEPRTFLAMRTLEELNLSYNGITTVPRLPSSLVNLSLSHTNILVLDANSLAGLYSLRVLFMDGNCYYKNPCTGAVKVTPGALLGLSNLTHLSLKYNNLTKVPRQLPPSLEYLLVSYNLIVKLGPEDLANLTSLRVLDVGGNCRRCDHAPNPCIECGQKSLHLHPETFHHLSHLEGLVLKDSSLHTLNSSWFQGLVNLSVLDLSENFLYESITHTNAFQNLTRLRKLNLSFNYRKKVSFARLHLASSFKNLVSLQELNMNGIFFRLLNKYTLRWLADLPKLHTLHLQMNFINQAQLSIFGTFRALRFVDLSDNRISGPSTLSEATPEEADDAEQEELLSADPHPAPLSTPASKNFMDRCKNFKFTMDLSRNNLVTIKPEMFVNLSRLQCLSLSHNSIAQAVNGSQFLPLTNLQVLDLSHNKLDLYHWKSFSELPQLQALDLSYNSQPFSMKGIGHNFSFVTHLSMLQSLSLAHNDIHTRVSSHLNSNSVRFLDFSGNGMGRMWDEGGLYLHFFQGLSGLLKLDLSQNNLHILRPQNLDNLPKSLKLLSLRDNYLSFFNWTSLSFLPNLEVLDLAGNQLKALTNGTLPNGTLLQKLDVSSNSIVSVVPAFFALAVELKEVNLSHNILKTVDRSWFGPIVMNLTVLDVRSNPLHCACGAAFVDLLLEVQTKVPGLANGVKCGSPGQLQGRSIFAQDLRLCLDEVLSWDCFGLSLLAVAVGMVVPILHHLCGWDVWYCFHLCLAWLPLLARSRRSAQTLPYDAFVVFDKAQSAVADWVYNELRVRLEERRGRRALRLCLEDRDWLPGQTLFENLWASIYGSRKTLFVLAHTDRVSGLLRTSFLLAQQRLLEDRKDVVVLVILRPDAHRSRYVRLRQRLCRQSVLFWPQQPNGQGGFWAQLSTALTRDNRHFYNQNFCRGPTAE

Cytochrome P450 3A4 = Cytochrome P450 3A4 (Homo sapiens, UniProt P08684); assay: Inhibition of CYP3A4 (unknown origin); type: ADME
Sequence of Cytochrome P450 3A4 (P08684 whole entry): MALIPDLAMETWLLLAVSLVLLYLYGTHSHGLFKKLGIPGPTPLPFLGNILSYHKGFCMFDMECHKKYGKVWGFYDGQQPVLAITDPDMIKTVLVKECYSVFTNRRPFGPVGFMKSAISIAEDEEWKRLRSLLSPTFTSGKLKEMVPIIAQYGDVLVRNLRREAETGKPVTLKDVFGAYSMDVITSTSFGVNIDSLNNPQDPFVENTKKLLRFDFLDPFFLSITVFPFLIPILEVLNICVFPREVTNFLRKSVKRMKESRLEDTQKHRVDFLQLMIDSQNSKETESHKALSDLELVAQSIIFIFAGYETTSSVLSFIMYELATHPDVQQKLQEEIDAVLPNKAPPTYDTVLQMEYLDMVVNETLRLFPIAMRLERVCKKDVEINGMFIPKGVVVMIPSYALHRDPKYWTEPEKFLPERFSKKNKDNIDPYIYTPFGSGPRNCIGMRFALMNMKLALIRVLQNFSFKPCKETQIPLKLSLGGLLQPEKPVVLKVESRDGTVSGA

[2] = target: T2, Interleukin-1 receptor type 1 (Homo sapiens, UniProt P14778); assay: Antagonist activity at IL1R in human PBMC assessed as inhibition of IL1beta-induced TNFalpha production preincubated for 30 mins followed by IL1beta addition and measured after 20 hrs by HTRF assay; type: cell-based
T2 sequence (P14778 whole entry): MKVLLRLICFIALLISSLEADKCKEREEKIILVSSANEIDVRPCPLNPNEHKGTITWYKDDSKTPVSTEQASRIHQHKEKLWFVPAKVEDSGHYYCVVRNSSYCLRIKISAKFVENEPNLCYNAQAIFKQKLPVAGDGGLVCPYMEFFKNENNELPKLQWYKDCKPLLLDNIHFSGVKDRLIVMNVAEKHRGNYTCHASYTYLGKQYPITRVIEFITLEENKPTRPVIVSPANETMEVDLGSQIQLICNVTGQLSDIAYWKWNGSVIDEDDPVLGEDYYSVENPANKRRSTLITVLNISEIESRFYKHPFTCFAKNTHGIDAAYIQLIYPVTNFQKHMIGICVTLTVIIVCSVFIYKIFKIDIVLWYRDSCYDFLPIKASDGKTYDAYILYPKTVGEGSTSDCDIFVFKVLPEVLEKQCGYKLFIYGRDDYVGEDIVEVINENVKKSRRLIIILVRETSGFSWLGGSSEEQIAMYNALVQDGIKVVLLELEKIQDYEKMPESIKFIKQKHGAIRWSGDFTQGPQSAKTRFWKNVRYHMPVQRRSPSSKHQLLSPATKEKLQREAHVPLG

Toll-like receptor 9 [3] = target: T3, Toll-like receptor 9 (Homo sapiens, UniProt Q9NR96); assay: Antagonist activity at TLR9 in human whole blood inhibition of DOTAP-ODN2216-induced IFNalpha production preincubated for 30 mins followed by DOTAP-ODN2216 addition and measured after 20 hrs by ELISA; type: tissue-based
T3 sequence (Q9NR96 whole entry): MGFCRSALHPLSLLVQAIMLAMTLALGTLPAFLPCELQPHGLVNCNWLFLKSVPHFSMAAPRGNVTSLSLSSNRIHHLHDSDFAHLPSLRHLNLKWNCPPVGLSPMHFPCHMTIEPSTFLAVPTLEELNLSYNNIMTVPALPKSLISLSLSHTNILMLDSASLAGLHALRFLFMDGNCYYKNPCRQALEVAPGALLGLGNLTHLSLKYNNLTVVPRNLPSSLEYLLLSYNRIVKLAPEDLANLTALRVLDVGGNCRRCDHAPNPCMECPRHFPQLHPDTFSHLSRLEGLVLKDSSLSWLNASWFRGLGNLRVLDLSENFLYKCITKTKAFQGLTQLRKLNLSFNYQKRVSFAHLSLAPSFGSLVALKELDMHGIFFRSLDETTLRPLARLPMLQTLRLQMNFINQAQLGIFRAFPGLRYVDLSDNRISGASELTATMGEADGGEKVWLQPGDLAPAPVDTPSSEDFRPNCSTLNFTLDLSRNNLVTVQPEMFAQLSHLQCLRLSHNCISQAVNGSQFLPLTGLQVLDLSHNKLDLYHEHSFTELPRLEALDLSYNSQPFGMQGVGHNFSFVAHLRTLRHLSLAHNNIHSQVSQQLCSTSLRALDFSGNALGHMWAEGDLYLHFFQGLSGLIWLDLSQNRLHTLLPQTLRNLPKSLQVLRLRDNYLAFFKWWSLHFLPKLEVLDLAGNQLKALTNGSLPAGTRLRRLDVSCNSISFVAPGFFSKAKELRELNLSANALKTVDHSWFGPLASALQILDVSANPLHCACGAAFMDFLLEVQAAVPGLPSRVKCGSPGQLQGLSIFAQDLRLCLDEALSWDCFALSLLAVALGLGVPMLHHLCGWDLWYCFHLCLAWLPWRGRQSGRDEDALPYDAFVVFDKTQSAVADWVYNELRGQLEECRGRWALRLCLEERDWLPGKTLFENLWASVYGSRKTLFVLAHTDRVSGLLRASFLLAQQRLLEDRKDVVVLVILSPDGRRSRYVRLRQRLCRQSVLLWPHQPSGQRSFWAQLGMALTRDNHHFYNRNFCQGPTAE

Toll-like receptor 9 [4] = target: T3, Toll-like receptor 9; assay: Antagonist activity at TLR9 in human PBMC assessed as inhibition of ODN2216-induced IFNalpha production preincubated for 30 mins followed by ODN2216 addition and measured after 20 hrs by alphaLISA; type: cell-based

- pIC50 (Toll-like receptor 9 [1]): < 5.00
- pIC50 (Cytochrome P450 3A4): < 4.60
- pIC50 [2]: < 5.19
- pIC50 (Toll-like receptor 9 [3]): < 5.00
- pIC50 (Toll-like receptor 9 [4]): < 5.28
Compound: O=c1ccc(-c2cc(C(F)(F)F)c3nn([C@H]4CCNC[C@@H]4F)cc3c2)c2n1CCC2

From ChEMBL document CHEMBL4619804, “Target-Based Identification and Optimization of 5-Indazol-5-yl Pyridones as Toll-like Receptor 7 and 8 Antagonists Using a Biochemical TLR8 Antagonist Competition Assay” (J Med Chem, 2020)
